Here are results for three compounds from paper PMC8624133, “10th Trends in Medical Mycology Held on 8 to 11 October 2021, Aberdeen, Scotland, Organized by the European Confederation of Medical Mycology (ECMM)” (Journal of Fungi, 2021).

Series [1] can be described thus: ECMM multinational study, risk factors for CAPA. The series is classed as in vivo, human. To be noted: critically ill COVID-19 patients in ICU, 592 patients. The source says: Methods: The European Confederation of Medical Mycology (ECMM) conducted a multinational study including 20 centers from nine different countries to assess epidemiology, diagnosis, risk factors, treatment and outcome of CAPA. CAPA was defined according to ECMM/ISHAM consensus definitions.

Series [2] relates to dermatophyte strains. The series can be described thus: Terbinafine modified breakpoint method. The series is classed as cell-based.
Method: In vitro sensitivity testing against terbinafine was carried out using a modified breakpoint method according to Yamada et al., (2017) and Ebert et al., (2020).
For series [3], the system named is clinical dermatophyte isolates. The series is described as follows: Inhibition of dermatophyte biofilm formation. Type of series: cell-based. The protocol: Materials and Methods: The study population consisted of 50 dermatophyte isolates that were collected from 2019 to 2020 from patients referred to the two mycology laboratory of Shiraz, Iran. The isolates were identified by ITS gene region sequencing. The suspension (equivalent to 0.5 McFarland) of the isolates was used to evaluate the ability of the isolates to form biofilms and also the effect of itraconazole, terbinafine and griseofulvin at concentrations of 2–32 μg/mL on inhibiting biofilm formation. Two optical microscope and a scanning electron microscope were used to study the microscopic structure of biofilms formed on the surface of 96-well plate wells.

Series [4] concerns T. mentagrophytes. The series can be described thus: EUCAST E.DEF 11.0 MIC. The series is classed as cell-based. Particulars: Trichophyton mentagrophytes.
The test system of series [5] is Exophiala phaeomuriformis. The series is described as follows: MIC, CLSI M27-A3. Type of series: cell-based. To be noted: read-out: MIC values. Summed up: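 Isolate recovered from aviation kerosene by 0.22 μm membrane filtration, grown on potato dextrose agar at 30 °C for seven days and identified by ITS sequencing. Susceptibility to clinical antifungals tested per CLSI M27-A3.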

Series [6] deals with environmental yeasts from a lagoon. The series can be described thus: organism not typed. The series is classed as cell-based.
Series [7] deals with T. mentagrophytes isolates. To be noted: cited from earlier work.
In series [8] the test system is T. rubrum and T. interdigitale. To be noted: cited from earlier work.
Series [9] deals with Trichophyton spp. The series is described as follows: Agar-based screening method. Type of series: cell-based. To be noted: 0.5 McF, 5 days, 30 °C. The protocol: Inter-experimental variation was evaluated by testing 10 isolates on three different days. Single-centre validation: After determining the optimal conditions for the agar screening method, 112 molecularly identified Trichophyton spp. clinical isolates were tested.

Series [10] deals with T. rubrum. To be noted: eight susceptible strains; ref Arendrup et al., 2020; cited from earlier work.
Series [11] has as its system T. indotineae. To be noted: eleven susceptible strains; ref Arendrup et al., 2020; cited from earlier work.
In series [12] the test system is T. mentagrophytes. The series can be described thus: EUCAST E.DEF11.0 susceptibility.
Method: Materials/methods: Samples from patients with clinically suspected dermatophytosis attending the outpatient Dermatology-Venereology Department of “Attikon” hospital during 2010–2019 were collected. Specimens were processed for direct microscopic examination (Blankophor in 10% KOH) and were inoculated on two plates each of Sabouraud’s dextrose agar supplemented with gentamicin + chloramphenicol and the other containing phenol red + cyclohexamide (incubation at 30 °C up to 4 weeks). Recovered isolates were identified to the genus and species level by standard phenotypic methods based on their colonial/microscopic morphology and biochemical properties (hydrolysis of urea) and were stored in 10% glycerol stocks at −70 °C.
For series [13], the system named is clinical Trichophyton spp. isolates. The series can be described thus: Checkerboard microdilution based on EUCAST. Type of series: cell-based. Particulars: for MIC: Trichophyton, read-out: geometric mean MIC, drug alone; for FICI of isolates exhibiting synergy / isolates with synergistic interactions: terbinafine + itraconazole. The protocol: Materials & Methods: The combination has been tested against 9 terbinafine-susceptible and 7 terbinafine-resistant clinical Trichophyton spp. isolates from India. In vitro interactions were evaluated by a microdilution checkerboard technique based on the EUCAST reference method for antifungal susceptibility testing. The mode of interaction between terbinafine and itraconazole was determined by the fractional inhibitory concentration index (FICI). The FICI was interpreted as FICI ≤ 0.5 = synergy, FICI > 0.5–4 = no interaction, and FICI > 4.0 = antagonism.

Series [14] concerns dermatophyte standard strains and clinical isolates. The series can be described thus: Broth microdilution MIC. To be noted: all tested strains. The series is classed as cell-based, Trichophyton and Microsporum spp. On the procedure:
Materials & Methods: The minimum inhibitory concentration (MIC) of honokiol was assessed by broth microdilution method against standard strains (Trichophyton rubrum ATCC 28188, Trichophyton mentagrophytes ATCC 9533), and clinical isolates (T. rubrum, T. ajelloi, Microsporum canis and M. gypseum). Evaluation of honokiol effect on ergosterol biosynthesis was assessed by high performance liquid chromatography. Checkerboard microtiter method was used to identify synergistic combinations of honokiol with terbinafine against Trichophyton rubrum ATCC 28188. The combinatorial effect was evaluated by calculating the fractional inhibitory concentration index (FICI).

Series [15] concerns T. rubrum and T. interdigitale isolates. The series can be described thus: CLSI M38A2 broth microdilution.
The test system of series [16] is A. fumigatus isolates (ARAF and azole susceptible). The series is described as follows: Broth microdilution after EUCAST. Type of series: cell-based. Particulars: Aspergillus fumigatus; range, 16 ARAF and 4 azole susceptible isolates. On the procedure: (§1) Materials & Methods: Olorofim activity has been analyzed at different stages (prior adhesion, 4 h, 12 h, 24 h and 48 h after inoculation) of biofilm formation of clinical ARAF strains (n = 16) as well as azole susceptible A. fumigatus isolates (n = 4) by using an XTT assay. Olorofim was applied in concentrations of a total, a half, a quarter and an eighth of the previously determined minimum inhibitory concentrations (MICs) by broth microdilution method after EUCAST.

Series [17] concerns A. fumigatus biofilm. The series is described as follows: Antibiofilm activity, XTT assay. The series is classed as cell-based, Aspergillus fumigatus. The protocol: as §1
The mark [18] stands for this setting: 7 terbinafine-resistant isolates.
Where [19] appears, read: 9 terbinafine-susceptible isolates.

≈ marks a conversion by molar mass, not a printed value. Where two headings read alike, the source gives them in different places.

Turning to “tocilizumab: tocilizumab received by COVID-19 ICU patients”, the “hazard ratio for CAPA” value in series [1] is reported as 2.45.
Regarding `CN(C/C=C/C#CC(C)(C)C)Cc1cccc2ccccc12` [terbinafine], the in vitro resistance result in [2] (T. mentagrophytes ITS type VIII (T. indotineae), MIC ≥0.2 µg/mL counts as resistant) is given as “In vitro resistance”. Besides, the minimal inhibitory concentration (MIC) is 0.1 µg/mL (≈ 0.343 µM) in series [2] (few strains, conspicuous but not resistant); 0.25 to 8 µg/mL (≈ 0.858 to 27.5 µM) in [4]; 0.0156 µg/mL (≈ 0.0535 µM) in [5]; 4 to 256 µg/mL in series [6] (read-out: MIC of resistant-like isolates); “under 0.25 µg/µL” in series [10]; “under 0.25 µg/µL” in series [11]. Moreover, the minimum inhibitory concentration (MIC) in [12] (Trichophyton mentagrophytes, read-out: MIC of strains with elevated MICs) was 0.25 to 8 µg/mL; in series [13] (setting [18]) it was 11.9 µg/mL; in series [13] (setting [19]), 0.12 µg/mL; in series [14] it was 0.03 to 0.06 µg/mL; in [15] (Trichophyton interdigitale), 1 to 2 µg/mL (≈ 3.43 to 6.86 µM). Besides, in series [3] (inhibition of biofilm formation, read-out: mean concentrations of IC50), the IC50 amounted to 2.42 µg/mL (≈ 8.3 µM). Besides, in [3] (tested at 2–32 μg/mL), the “samples with IC50 in concentration <2” value came out at 70%. For the same compound, in [6], the “isolates classified as resistant-like” value was 39. Moreover, in [7], the resistant isolates is reported as 30–70%. In series [8], the terbinafine resistance is 1%. Besides, the results for the “optimal agar concentration preventing growth of WT isolates” value in [9] (for high-level resistant isolates) and in series [9] (for low-level resistant isolates) were 0.125 mg/L and 0.01 mg/L, respectively. In [12] (9/24), the “strains with elevated MICs” value was 37.5%. The “MIC range, drug alone” value in [13] (setting [18]) is 2 to 64 µg/mL; in series [13] (setting [19]), 0.03125 to 0.5 µg/mL. Besides, the “FICI of isolates exhibiting synergy” value in [13] (resistant isolates) lay within 0.032 to 0.3125; in [13] (susceptible isolates), 0.3125 to 0.5. Further, the figures for the “isolates with synergistic interactions” value in [13] (resistant isolates) and in series [13] (susceptible isolates) were 4/7 and 4/9, respectively. Further, the “isolates less susceptible by microdilution” value in series [15] is given as 2.44%.
In series [16], `Cc1cc(-c2ccccc2)c(C(=O)C(=O)Nc2ccc(N3CCN(c4ncc(F)cn4)CC3)cc2)n1C` [olorofim] showed a minimum inhibitory concentration (MIC) of 0.008 to 0.03 µg/mL (≈ 0.016 to 0.0602 µM). Moreover, the biofilm reduction result in series [17] (added prior to adhesion (t0) and right after adhesion (t4), compared to non-treated control) is recorded as “up to 96%”. Further, the “effect on mature biofilm” value in series [17] (t24 & t48) is “did not show an effect”.
